Like-named read-outs stand apart in the source and are kept apart here.
Tests used:
[1] = test system: human breast cancer line MDA-MB-231; assay: Tumor growth inhibition in nude mice xenograft model, MDA-MB-231; conditions: Paclitaxel 24 mg/kg × 4, intermittent i.p.
Experimental: • 1. […] Drug administration dose were set as: 10 mg/kg, 15 mg/kg, and 20 mk/kg, drug administration volume was 0.2 mL/20 g. • 2. […] MDA [Peptide (P) 0.54 mg/mL (0.001M), Example 10], a colorless and clear liquid, was prepared by the commission, can be directly used after the repackaging in a sterile condition, stored at 4° C. […] Certificate NO. […] SYSK (BeiJing) 2004-0001. Experiment Methods:
The mice were divided into groups and administrated drug after 11 days.
The mice were divided into eight groups, each group had 6-8 mice. The groups contained Negative control. […] After grouping, all mice were administrated with drug by intraperitoneal injection once a day depends on their body weight.
Other groups were administered with drugs for 24 times successively. The experiment was completed 24 h after the last administration.
The mice were sacrificed, and tumors were isolated and their weight was measured, and the inhibition rate of tumor growth by drugs were calculated. […] Calculation methods and formula were omitted.

[2] = test system: Mice breast cancer cell line (4T1, ATCC CRL2539); conditions: TAXOL 3 mg/kg i.p. once daily
Experimental: Mice breast cancer cell line (4T1, ATCC CRL2539) was a generous gift from Prof. Wei Liang of the Institute of biophysics, Chinese Academy of Sciences. The cell was cultured in the 1640 medium (Gibco) containing 10% fetal bovine serum (FBS), 1% glutamine and 1% penicillin.
4T1 cells in logarithmic phase were collected and the concentration was adjusted to 2×10^6/mL. 4T1 tumors were introduced in female BALB/c mice by injecting subcutaneously into the fourth fat pad area of the right abdominal mammary gland with the dose of 2×10^5/0.1 mL. […] From the 9th day after implantation, tumor growth was measured every 2 days with vernier calipers for determining the long diameter and short diameter of tumor. Tumor volume was calculated by the formula (½)×long diameter×short diameter^2. Drug was withdrawn on the twenty-eight days after the implantation, all mice were then sacrificed and the body weight were measured. The tumors, spleen and lung were removed and weighed. The lungs were fixed in Bouin's fixative for 24 h. The numbers of lung metastasis nodule were counted, the statistics was evaluated using Mann-Whitney U test.

lewis lung cancer [3] = conditions: TAXOL 6 mg/kg i.p. once daily
Experimental: C57Bl/6 mice with lewis lung cancer were sacrificed and the tumor was removed. The tumor cell suspension (5×10^6 cell/mL) was prepared in a sterile condition. The suspension (0.2 mL/mice, 1×10^6 tumor cell) was inoculated subcutaneously into the axillary of 24 C57Bl/6 mice. […] From the 7th day after the implantation, the long diameter and short diameter of tumor was measured every 2 days. Tumor volume was calculated by the formula (½)×long diameter×short diameter^2. Drug was withdrawn on the eighteenth day after the implantation. All mice were then sacrificed and the body weight was measured. The tumors, spleen and lung were removed and weighed. The lungs were fixed in Bouin's fixative for 24 h. The numbers of lung metastasis nodule were counted, and the statistics was evaluated by Mann-Whitney U test.

lewis lung cancer [4] = assay: Anti-artificial metastasis on Lewis lung cancer in mice (intravenous inoculation); format: in vivo, C57Bl/6 mice; conditions: TAXOL 3 mg/kg i.p.
Experimental: The suspension (0.2 mL/mice, 3×10^5 tumor cell) was inoculated intravenously into the tails of fifty C57Bl/6 mice. […] The tumors, spleen and lung were removed and weighed.

Human lung cancer H460 = conditions: for TGI: 24 mg/kg
From the text: Through cell culture in vitro, the tumor was inoculated on nude mice, the tumor grew and passaged for the experiment use. • Animals: BALB/c nude mice, ♀, 4˜5 weeks old, were obtained from the Experimental Lab, Chinese Academy of Medical Science, Certificate NO. […] Experiment Method:
The tumor-bearing mice with good tumor growth and good general physical condition were selected and sacrificed. Tumor was isolated in a sterile condition and cut into fragments (diameter for about 2-3 mm) by surgical knife. The fragments were then hypodermically inoculated in posterior axillary of nude mice by means of a trocar.
After the tumors grew naturally for eight days, the average volume of tumors reaches 130 mm^3. The length and width of tumor was measured using vernier calipers, and divided into groups by the tumor volume.
The mice were divided into five groups for observation, each groups had eight mice. […] Respective drug was administrated for each group from the grouping day.
The experiment was terminated 24 hours after the last administration.
During the experimentation, the tumors sizes (length and width) and body weights of mice were measured once every three days. The tumor volume (TV) and relative tumor volume (RTV) were calculated according to the method for references, and the tumor volume growth tendency chart was plotted.
At the end of the experiment, the mice were sacrificed. Tumors were removed and weighed, and the inhibition rate of the tumor growth by drugs was calculated. Statistical significance of the tumor weight, tumor volume and RTV level were evaluated by t-test.
[formula] • (C, average tumor weight of control group; T, average tumor weight of administrated group) • Tumor Volume (TV)=length×width^2/2. • Relative Tumor Volume (RTV) formula: Vt/Vo • (Vo is the volume of TV at the beginning of the grouping, and Vt is the volume of TV at measure time) • Anti-tumor activities were evaluated by Tumor Relative proliferation Rate T/C (%)
[formula] • Therapeutic effect evaluation standard: T/C (%)>40, was judged as invalid; • T/C (%)≦40, and through statistical evaluation P<0.05, was judged as valid.

[5] = Paclitaxel injection 24 mg/kg × 4, once every three days

## CC(=O)O[C@H]1C(=O)[C@@]2(C)[C@H]([C@H](OC(=O)c3ccccc3)[C@]3(O)C[C@H](OC(=O)[C@H](O)[C@@H](NC(=O)c4ccccc4)c4ccccc4)C(C)=C1C3(C)C)[C@]1(OC(C)=O)CO[C@@H]1C[C@@H]2O [Paclitaxel, reference compound]
[1]
  RTV: 3.18 ± 2.735
  T/C: 17.64%
  TGI: 84.9%
  Tumor volume Beginning: 133 ± 39.8 mm^3
  Tumor volume End: 422 ± 404.6 mm^3
  Tumor weight: 0.43 ± 0.416 g
[2]
  Lung weight: 190 ± 49 mg
[2]; listed as TAXOL
  Lung metastasis nodule counts: 41.2 ± 9
[2]; listed as Taxol
  Lung metastasis nodule counts: no significant improvement
Lewis lung cancer [3]; listed as TAXOL
  Lung metastasis nodule counts: 24.9 ± 9
Lewis lung cancer [3]; listed as Taxol
  Lung metastasis nodule counts: no significant improvement
Lewis lung cancer [4]
  Lung weight: 497 ± 491 mg
Lewis lung cancer [4]; listed as TAXOL
  Lung metastasis nodule counts: 38.5 ± 28
Lewis lung cancer [4]; listed as Taxol
  Lung metastasis nodule counts: no significant improvement
Human lung cancer H460; [5]
  Body weight Beginning: 18.9 ± 1.28 g
  Body weight End: 18.6 ± 1.41 g
  RTV: 11.9 ± 3.16
  T/C: 35.6%
  Tumor volume Beginning: 130 ± 36.7 mm^3
  Tumor volume End: 1583 ± 507.2 mm^3
  Tumor weight: 1.16 ± 0.410 g
Human lung cancer H460; Paclitaxel injection 24 mg/kg × 4, once every three days, listed as Paclitaxel injection
  TGI: 61.0%
Human lung cancer H460; Paclitaxel injection 24 mg/kg × 4, once every three days, listed as paclitaxel
  TGI: 61%
Human lung cancer H460; paclitaxel 24 mg/kg intermittently
  Body weight lost compared with the average weight at the beginning of grouping: 2
Human lung cancer H460; paclitaxel 24 mg/kg, after the fourth administration
  Tumor growth inhibition rate compared with negative control: 65%

Reference: patent publication US9085605B2, “Chemical synthesis and anti-tumor and anti-metastatic effects of dual functional conjugate” (Shenzhen Salubris Pharmaceuticals Co., Ltd., priority 2010, dated 2015)
